Reference: ChEMBL document CHEMBL4052604, “Englerins: A Comprehensive Review” (J Nat Prod, 2017)

Experiments:
[1] = system: A498; experiment: Cytotoxicity against human A498 cells assessed as reduction in cell viability; type: functional, cell-based
[2] = system: A498; experiment: Antiproliferative activity against human A498 cells after 48 hrs by sulphorhodamine B assay; type: functional, cell-based; conditions: A498, 48 h

`CC[C@@]12C[C@@H](OC(=O)CO)[C@@](C)(O1)[C@@H]1CC[C@@H](C)[C@H]1[C@@H]2OC(=O)/C=C/c1ccccc1` was tested. Which IC50 [1] did it give?
The IC50 was 950 nM.

How did the IC50 [1] turn out when `CC1(C)C2C[C@H](OC(=O)/C=C/c3ccccc3)C1(C)C[C@H]2OC(=O)CO` (stereo not given in full) was run?
Its IC50 is 35000 nM.

For `CC(C)[C@@]12C[C@@H](C(=O)OCCO)[C@@](C)(O1)[C@@H]1CC[C@@H](C)[C@H]1[C@@H]2OC(=O)/C=C/c1ccccc1`, which IC50 [2] is on record?
The IC50 was 48 nM.

Which IC50 [1] does the source give for `C[C@@H]1CC[C@@H]2[C@@H]1[C@H](OC(=O)/C=C/c1ccccc1)[C@]1(C)C[C@@H](OC(=O)CO)[C@@]2(C)O1` here?
Its IC50 is 4600 nM.

How did the IC50 [1] turn out when `CC(C)[C@@]12C[C@@H](OC(=O)CO)[C@@](C)(O1)[C@@H]1CC[C@@H](C)[C@H]1[C@@H]2OC(=O)c1ccc(Cl)cc1Cl` was run?
Its IC50 is 280 nM.
